The source of these data is US20230298697A1, “DETERMINING VIABILITY AND TREATMENT OF DISEASE AGENTS” (priority 2022, published 2023).

Each structure is given as a SMILES string. Values after ≈ are worked out from the molar mass of the structure shown. Values joined by “and” are separate entries in the source; they are usually repeats but may differ in a detail not shown here. Equal entries are not always repeated.

Assay [1] concerns Mycobacterium tuberculosis H37Rv. The note with it: compared with other frontline drugs; stated as known; cited from earlier work.
Assay [2] has the same test system. Put plainly: Time-kill assay (CFU counting). The class given is cell-based. The note with it: for CFUs /ml (10^6) h0: h0 (start of treatment); for Relative CFUs (log10) h72: h72 relative to h0.
Assay [3] shares this test system. Put plainly: Minimum Inhibitory Concentration 50 (MIC50) determination. The class given is cell-based. The note with it: OD600 growth inhibition, 72 hours, 7H9-rich media.

One may read the MIC50 as the lowest concentration that inhibits either 50% of growth or 50% of the strains tested, depending on the study.

Take `COc1nc2ccc(Br)cc2cc1[C@@H](c1ccccc1)[C@@](O)(CCN(C)C)c1cccc2ccccc12` [BDQ, Bedaquiline]: in assay [1], the “speed of killing of Mycobacterium tuberculosis” value was “kills Mycobacterium tuberculosis relatively slowly”. In addition, in assay [2] (1.15 µg/ml), the “CFUs /ml (10^6) h0” value was 61 CFUs /ml (10^6) and 69 CFUs /ml (10^6) and 72 CFUs /ml (10^6); the “CFUs /ml (10^6) h24” value was 91 CFUs /ml (10^6) and 96 CFUs /ml (10^6) and 101 CFUs /ml (10^6); the “CFUs /ml (10^6) h72” value was 352 CFUs /ml (10^6) and 362 CFUs /ml (10^6) and 346 CFUs /ml (10^6); the “Relative CFUs (log10) h72” value is 0.761 log10 and 0.72 log10 and 0.682 log10. Also, in assay [2] (5.75 µg/ml), the “CFUs /ml (10^6) h0” value is 55 CFUs /ml (10^6) and 53 CFUs /ml (10^6) and 61 CFUs /ml (10^6); the “CFUs /ml (10^6) h24” value is 97 CFUs /ml (10^6) and 81 CFUs /ml (10^6) and 100 CFUs /ml (10^6); the “CFUs /ml (10^6) h72” value was 115 CFUs /ml (10^6) and 132 CFUs /ml (10^6) and 96 CFUs /ml (10^6); the “Relative CFUs (log10) h72” value was 0.32 log10 and 0.396 log10 and 0.197 log10. The MIC50 in assay [3] stood at 1.61 µg/mL (≈ 2.9 µM).

As for `CC(C)/N=c1\cc2n(-c3ccc(Cl)cc3)c3ccccc3nc-2cc1Nc1ccc(Cl)cc1` [CFZ, Clofazimine], in assay [2] (0.0728 µg/ml), the “CFUs /ml (10^6) h0” value is 239 CFUs /ml (10^6) and 141 CFUs /ml (10^6) and 148 CFUs /ml (10^6); the “CFUs /ml (10^6) h24” value is 116 CFUs /ml (10^6) and 112 CFUs /ml (10^6) and 124 CFUs /ml (10^6); the “CFUs /ml (10^6) h72” value was 176 CFUs /ml (10^6) and 192 CFUs /ml (10^6) and 207 CFUs /ml (10^6); the “Relative CFUs (log10) h72” value was -0.133 log10 and 0.134 log10 and 0.146 log10. For the same compound, in assay [2] (0.728 µg/ml), the “CFUs /ml (10^6) h0” value was 158 CFUs /ml (10^6) and 182 CFUs /ml (10^6) and 101 CFUs /ml (10^6); the “CFUs /ml (10^6) h24” value is 87 CFUs /ml (10^6) and 69 CFUs /ml (10^6) and 67 CFUs /ml (10^6); the “CFUs /ml (10^6) h72” value was 41 CFUs /ml (10^6) and 26 CFUs /ml (10^6) and 52 CFUs /ml (10^6).

Regarding `NNC(=O)c1ccncc1` [INH, Isoniazid], in assay [2] (0.018 µg/ml), the “CFUs /ml (10^6) h24” value was 182 CFUs /ml (10^6) and 160 CFUs /ml (10^6) and 171 CFUs /ml (10^6); the “CFUs /ml (10^6) h72” value was 184 CFUs /ml (10^6) and 194 CFUs /ml (10^6) and 203 CFUs /ml (10^6). In assay [2] (0.18 µg/ml), the “CFUs /ml (10^6) h0” value was 93 CFUs /ml (10^6) and 77 CFUs /ml (10^6) and 70 CFUs /ml (10^6); the “CFUs /ml (10^6) h24” value was 60 CFUs /ml (10^6) and 90 CFUs /ml (10^6); the “CFUs /ml (10^6) h72” value was 78 CFUs /ml (10^6) and 97 CFUs /ml (10^6) and 70 CFUs /ml (10^6); the “Relative CFUs (log10) h72” value was -0.076 log10 and 0.1 log10 and 0 log10. Besides, in assay [2] (0.36 µg/ml), the “CFUs /ml (10^6) h0” value is 159 CFUs /ml (10^6) and 180 CFUs /ml (10^6) and 187 CFUs /ml (10^6); the “CFUs /ml (10^6) h72” value was 0.1 CFUs /ml (10^6); the “Relative CFUs (log10) h72” value was -3.201 log10 and -3.255 log10 and -3.272 log10. Further, in assay [2] (1.8 µg/ml), the “CFUs /ml (10^6) h0” value was 77 CFUs /ml (10^6) and 68 CFUs /ml (10^6) and 87 CFUs /ml (10^6); the “CFUs /ml (10^6) h72” value is on record as 0.1 CFUs /ml (10^6); the “Relative CFUs (log10) h72” value was -2.886 log10 and -2.833 log10 and -2.94 log10. Moreover, in assay [3], the MIC50 is 0.2 µg/mL (≈ 1.46 µM).

On to `CC(=O)NC[C@H]1CN(c2ccc(N3CCOCC3)c(F)c2)C(=O)O1` [LZD, Linezolid], for which, in assay [2] (0.0844 µg/ml), the “CFUs /ml (10^6) h0” value was 81 CFUs /ml (10^6) and 100 CFUs /ml (10^6) and 98 CFUs /ml (10^6); the “CFUs /ml (10^6) h24” value is 135 CFUs /ml (10^6) and 147 CFUs /ml (10^6) and 127 CFUs /ml (10^6); the “CFUs /ml (10^6) h72” value was 249 CFUs /ml (10^6) and 245 CFUs /ml (10^6) and 239 CFUs /ml (10^6); the “Relative CFUs (log10) h72” value was 0.488 log10 and 0.389 log10 and 0.387 log10. For the same compound, in assay [2] (0.844 µg/ml), the “CFUs /ml (10^6) h0” value is 61 CFUs /ml (10^6) and 68 CFUs /ml (10^6) and 60 CFUs /ml (10^6); the “CFUs /ml (10^6) h24” value is 63 CFUs /ml (10^6) and 74 CFUs /ml (10^6) and 92 CFUs /ml (10^6); the “CFUs /ml (10^6) h72” value was 71 CFUs /ml (10^6) and 86 CFUs /ml (10^6) and 72 CFUs /ml (10^6); the “Relative CFUs (log10) h72” value was 0.066 log10 and 0.102 log10 and 0.079 log10. For the same compound, the MIC50 in assay [3] came to 1.13 µg/mL (≈ 3.35 µM).

In the case of `COc1c(N2C[C@@H]3CCCN[C@@H]3C2)c(F)cc2c(=O)c(C(=O)O)cn(C3CC3)c12` [MXF, Moxifloxacin hydrocholoride], in assay [2] (0.075 µg/ml), the “CFUs /ml (10^6) h0” value was 69 CFUs /ml (10^6) and 53 CFUs /ml (10^6) and 72 CFUs /ml (10^6); the “CFUs /ml (10^6) h24” value was 90 CFUs /ml (10^6) and 88 CFUs /ml (10^6) and 80 CFUs /ml (10^6); the “CFUs /ml (10^6) h72” value was 159 CFUs /ml (10^6) and 165 CFUs /ml (10^6) and 147 CFUs /ml (10^6); the “Relative CFUs (log10) h72” value is 0.363 log10 and 0.493 log10 and 0.31 log10. In assay [2] (0.3 µg/ml), the “CFUs /ml (10^6) h0” value is 43 CFUs /ml (10^6) and 50 CFUs /ml (10^6); the “CFUs /ml (10^6) h72” value is reported as 0.1 CFUs /ml (10^6); the “Relative CFUs (log10) h72” value was -2.633 log10 and -2.699 log10. The compound also gave an MIC50 in assay [3] of 0.07 µg/mL (≈ 0.174 µM).

As for `O=[N+]([O-])c1cn2c(n1)OC[C@@H](OCc1ccc(OC(F)(F)F)cc1)C2` [PA824, Pretomanid], the MIC50 in assay [3] was 0.15 µg/mL (≈ 0.418 µM).

Compound `CO[C@H]1/C=C/O[C@@]2(C)Oc3c(C)c(O)c4c(O)c(c(/C=N/N5CCN(C)CC5)c(O)c4c3C2=O)NC(=O)/C(C)=C\C=C\[C@H](C)[C@H](O)[C@@H](C)[C@@H](O)[C@@H](C)[C@H](OC(C)=O)[C@@H]1C` [RIF, Rifampicin] displayed an MIC50 in assay [3] of 0.02 µg/mL (≈ 0.0243 µM).
